A value given as a limit tells only on which side of the number the result lay.

T1 sequence (P10721 26-976): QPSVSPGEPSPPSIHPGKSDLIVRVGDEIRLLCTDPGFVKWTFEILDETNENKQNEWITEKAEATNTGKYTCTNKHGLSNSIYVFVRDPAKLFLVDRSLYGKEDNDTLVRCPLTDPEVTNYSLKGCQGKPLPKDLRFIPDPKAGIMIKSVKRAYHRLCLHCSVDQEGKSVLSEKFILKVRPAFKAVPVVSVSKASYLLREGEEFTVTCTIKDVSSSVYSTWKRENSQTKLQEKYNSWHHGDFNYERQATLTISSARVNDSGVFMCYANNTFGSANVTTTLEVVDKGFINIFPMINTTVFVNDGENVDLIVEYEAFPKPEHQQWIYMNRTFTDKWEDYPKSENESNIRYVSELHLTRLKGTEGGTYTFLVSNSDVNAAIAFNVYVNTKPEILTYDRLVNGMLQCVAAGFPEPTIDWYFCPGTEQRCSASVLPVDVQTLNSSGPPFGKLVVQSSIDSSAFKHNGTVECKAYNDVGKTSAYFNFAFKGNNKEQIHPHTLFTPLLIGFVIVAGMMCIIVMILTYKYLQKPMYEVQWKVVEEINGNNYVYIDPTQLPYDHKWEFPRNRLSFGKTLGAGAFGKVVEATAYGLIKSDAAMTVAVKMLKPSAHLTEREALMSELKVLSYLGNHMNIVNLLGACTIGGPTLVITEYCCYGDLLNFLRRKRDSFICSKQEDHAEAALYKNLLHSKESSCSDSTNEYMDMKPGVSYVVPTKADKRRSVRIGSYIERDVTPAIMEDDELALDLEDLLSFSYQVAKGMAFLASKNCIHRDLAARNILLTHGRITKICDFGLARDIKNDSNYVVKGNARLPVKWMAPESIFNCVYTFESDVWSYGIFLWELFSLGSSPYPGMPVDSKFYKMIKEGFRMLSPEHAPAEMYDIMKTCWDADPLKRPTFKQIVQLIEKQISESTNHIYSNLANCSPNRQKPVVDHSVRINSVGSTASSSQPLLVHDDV

One assay concerns the target T1, c-kit (Homo sapiens, UniProt P10721).
T1 construct: human Mo7e cells which endogenously express c-kit; endogenous in cells; host or cells: human Mo7e cells (promegakaryocytic leukemia line), stimulated with human recombinant SCF
Kind of assay: Mo7e cell proliferation assay (SCF dependent proliferation). In kind it is cell-based. The note with it: Table 1; human Mo7e cells stimulated with SCF, 48 hours, CellTiter Glo; 1% FBS; read-out: c-kit (Mo7e). How it is done: Mo7e Cell Proliferation Assay The compounds of Table 1 and Table 2 were tested for inhibition of SCF dependent proliferation using human Mo7e cells which endogenously express c-kit in a 384 well format. […] After 48 hours of incubation at 37° C., cell viability was measured by adding 25 uL of CellTiter Glo (Promega) to the cells and the luminescence was measured by a […] camera (Molecular Devices). […] The IC50 value is given as that concentration of the test compound in question that provoke a response halfway between the baseline and maximum responses.
A general note: Cellular ATP, detected with luciferase, serves as a proxy for viable cell number.
`Cc1ccc(-c2noc(N3CC(F)(F)C3)n2)cc1NC(=O)c1cnc2cc(F)ccn12` [F87]: the IC50 was determined as 91 nM.
In the case of `COC(=O)N1CC(c2nc(-c3cc(NC(=O)c4cnc5ccccn45)c(C)cc3C)no2)C1` [F79, methyl 3-(3-(5-(imidazo[1,2-a]pyridine-3-carboxamido)-2,4-dimethylphenyl)-1,2,4-oxadiazol-5-yl)azetidine-1-carboxylate], the IC50 turned out to be 37 nM.
In the case of `Cc1ccc(-c2noc(C3CCOC3)n2)cc1NC(=O)c1cnc2ccccn12` (centres unmarked) [F7], the IC50 was found to be 78 nM.
Turning to `COC(=O)N1CCC[C@H]1Cc1nc(-c2ccc(C)c(NC(=O)c3cnc4ccccn34)c2)no1` [F40], the IC50 amounted to 94 nM.
Same read-out and setting: as for `COC(=O)N1CC(c2nc(-c3ccc(C)c(NC(=O)c4cnc5cc(-c6cc[nH]n6)ccn45)c3)no2)C1` [F68, methyl 3-(3-(3-(7-(1H-pyrazol-3-yl)imidazo[1,2-a]pyridine-3-carboxamido)-4-methylphenyl)-1,2,4-oxadiazol-5-yl)azetidine-1-carboxylate], the figure is 13 nM.
Same read-out and setting: as for `Cc1ccc(-c2noc(N3CCC3)n2)cc1NC(=O)c1cnc2ccccn12` [F77, N-(5-(5-(azetidin-1-yl)-1,2,4-oxadiazol-3-yl)-2-methylphenyl)imidazo[1,2-a]pyridine-3-carboxamide], the figure is 132 nM; as for `[2H]c1c([2H])c([2H])n2c(C(=O)Nc3cc(-c4noc(C5CN(C(=O)OC)C5)n4)ccc3C)cnc2c1[2H]` [F76, methyl 3-(3-(4-methyl-3-(5,6,7,8-(D4)imidazo[1,2-a]pyridine-3-carboxamido)phenyl)-1,2,4-oxadiazol-5-yl)azetidine-1-carboxylate], 51 nM; as for `Cc1ccc(-c2nc(N3CC(F)(F)C3)no2)cc1NC(=O)c1cnc2ccccn12` [F2], 13 nM.
Same read-out and setting: as for `Cc1ccc(-c2noc([C@@H]3CCCN3S(C)(=O)=O)n2)cc1NC(=O)c1cnc2ccccn12` [F36], the figure is 93 nM.
As to `[2H]c1ccc2ncc(C(=O)Nc3cc(-c4noc(C5CN(C(=O)OC)C5)n4)ccc3C)n2c1` [F98], the IC50 is 43 nM.
The same measure, in the same setting: the same measure for `Cc1ccn2c(C(=O)Nc3cc(-c4noc(N5CCCC(C(F)(F)F)C5)n4)ccc3C)cnc2c1` (centres unmarked) [F93]: 48 nM; for `Cc1ccn2c(C(=O)Nc3cc(-c4noc(N5CC(C)(O)C5)n4)ccc3C)cnc2c1` [F88]: 62 nM; for `Cc1ccc(Nc2noc(C3CCOCC3)n2)cc1NC(=O)c1cnc2ccccn12` [F69]: 39 nM.
Regarding `Cc1ccn2c(C(=O)Nc3cc(-c4noc(N5CCOCC5)n4)ccc3C)cnc2c1` [F91], the IC50 amounted to 64 nM.
Still for that read-out and setting: the same measure for `COC(=O)N1CC(c2nc(-c3ccc(C)c(NC(=O)c4cnc5ccc(COCCF)cn45)c3)no2)C1` [F96]: 26 nM; for `CCCS(=O)(=O)N1CC(c2nc(-c3ccc(C)c(NC(=O)c4cnc5ccccn45)c3)no2)C1` [F16]: 35 nM.
`Cc1nc(C)c(-c2ccc3ncc(C(=O)Nc4cc(-c5noc(CN6CC(C#N)C6)n5)ccc4C)n3c2)s1` [F99]: the IC50 was 49 nM.
`Cc1ccc(-c2noc(CC3CCCOC3)n2)cc1NC(=O)c1cnc2ccccn12` (centres unmarked) [F49]: the IC50 amounted to 40 nM.
As to `Cc1ccc(-c2noc(C3CCCCO3)n2)cc1NC(=O)c1cnc2ccccn12` (centres unmarked) [F8], the IC50 was 42 nM.

The same assay, now with this note: Table 2; human Mo7e cells stimulated with SCF, 48 hours, CellTiter Glo; 1% FBS; read-out: c-kit (Mo7e).
`Cc1ccc2ncc(C(=O)Nc3cc(-c4noc(C5CCN5C(=O)OC(C)(C)C)n4)ccc3C)n2c1` (centres unmarked) [F261]: the IC50 stood at 291 nM.
On the same count and under the same terms, the same measure for `Cc1ccc(-c2noc(C3CCCNC3)n2)cc1NC(=O)c1cnc2ccccn12` (centres unmarked) [F285]: 1670 nM; for `Cc1ccc(-c2noc(C3CN(C(=O)OCCCN4CCOCC4)C3)n2)cc1NC(=O)c1cnc2ccccn12` [F135]: 750 nM.
Same read-out and setting: the same measure for `COC(=O)N1CC(c2nc(-c3ccc(F)c(NC(=O)c4cnc5ccccn45)c3)no2)C1` [F201]: 443 nM; for `Cc1ccc(-c2noc(CN3CC(C#N)C3)n2)cc1NC(=O)c1cnc2ccccn12` [F129]: 310 nM; for `Cc1ccc(-c2noc(C3C[C@@H](O)CN3S(C)(=O)=O)n2)cc1NC(=O)c1cnc2ccc(F)cn12` (some centres unmarked) [F272]: 1140 nM.
The same measure, in the same setting: the same measure for `COC(=O)N1CC(c2nc(-c3ccc(C)c(NC(=O)c4cnc5ccccn45)c3C)no2)C1` [F249]: 426 nM; for `Cc1ccc(-c2noc(C3CN(C(=O)OCCO)C3)n2)cc1NC(=O)c1cnc2ccccn12` [F150]: 718 nM.
On to `O=C(Nc1cc(-c2noc(CN3CCOCC3)n2)ccc1F)c1cnc2ccccn12` [F229], for which the IC50 was found to be 245 nM.
As to `Cc1ccc(-c2noc(CCC(=O)N3CCOCC3)n2)cc1NC(=O)c1cnc2ccccn12` [F124], the IC50 stood at 426 nM.
`CS(=O)(=O)N1CC(c2nc(-c3ccc(F)c(NC(=O)c4cnc5ccccn45)c3)no2)C1` [F154]: the IC50 worked out at 472 nM.
In the case of `Cc1ccc(-c2noc([C@@H](C)N3CC(F)(F)C3)n2)cc1NC(=O)c1cnc2ccccn12` [F226], the IC50 came to 112 nM.
Regarding `Cc1ccc(-c2noc([C@@H]3COCCN3S(C)(=O)=O)n2)cc1NC(=O)c1cnc2ccccn12` [F165], the IC50 is 362 nM.
Consider `Cc1ccc(-c2noc(C3CCC(O)CO3)n2)cc1NC(=O)c1cnc2ccccn12` (centres unmarked) [F112], for which the IC50 turned out to be 227 nM.
As to `Cc1ccc2ncc(C(=O)Nc3cc(-c4noc(COC5CNC5)n4)ccc3C)n2c1` [F293], the IC50 turned out to be 2150 nM.
For `Cc1ccc(-c2noc(CN3CC(S(C)(=O)=O)C3)n2)cc1NC(=O)c1cnc2ccccn12` [F291], the IC50 was found to be 1920 nM.
Turning to `COCC(=O)NC1(c2nc(-c3ccc(C)c(NC(=O)c4cnc5ccccn45)c3)no2)COC1` [F141], the IC50 amounted to 700 nM.
As for `Cc1ccc(-c2noc(C3CCCCN3)n2)cc1NC(=O)c1cnc2ccccn12` (centres unmarked) [F109], the IC50 came to 215 nM.
As for `CC(=O)N1CC(c2nc(-c3ccc(C)c(NC(=O)c4cnc5ccccn45)c3)no2)C1` [F115], the IC50 amounted to 464 nM.
On to `CCN1CC(c2nc(-c3ccc(C)c(NC(=O)c4cnc5ccccn45)c3)no2)C1` [F271], for which the IC50 is 1120 nM.
On the same count and under the same terms, as for `Cc1ccc(-c2noc([C@@H]3CCCN3C(=O)OC(C)(C)C)n2)cc1NC(=O)c1cnc2ccccn12` [F176], the figure is 452 nM.
Take `Cc1ccc(-c2noc(CCN3CCOCC3)n2)cc1NC(=O)c1cnc2ccccn12` [F180]: the IC50 was found to be 169 nM.
Same read-out and setting: as for `CC(=O)N1CCO[C@@H](c2nc(-c3ccc(C)c(NC(=O)c4cnc5ccccn45)c3)no2)C1` [F199], the figure is 509 nM; as for `COCCOC(=O)N1CC(c2nc(-c3ccc(C)c(NC(=O)c4cnc5ccccn45)c3)no2)C1` [F127], 517 nM; as for `Cc1ccc(-c2noc([C@H]3CCCN3S(C)(=O)=O)n2)cc1NC(=O)c1cnc2ccccn12` [F213], 137 nM.
Consider `Cc1ccc(-c2noc(C[C@H]3CCNC3)n2)cc1NC(=O)c1cnc2ccccn12` [F284], for which the IC50 worked out at 1650 nM.
Turning to `Cc1ccc(-c2noc(C3CN(C(=O)OCC(F)(F)F)C3)n2)cc1NC(=O)c1cnc2ccccn12` [F264], the IC50 turned out to be 438 nM.
The same measure, in the same setting: the same measure for `Cc1ccc(-c2noc([C@H]3CCCN(C(=O)OC(C)(C)C)C3)n2)cc1NC(=O)c1cnc2ccccn12` [F187]: 320 nM.
Still for that read-out and setting: as for `Cc1ccc(-c2noc(C3CN(C(=O)N(C)C)C3)n2)cc1NC(=O)c1cnc2ccccn12` [F174], the figure is 831 nM; as for `Cc1ccc(-c2noc(CNC(=O)CC3CCOCC3)n2)cc1NC(=O)c1cnc2ccccn12` [F270], 1040 nM.
`COC(=O)N1CCC(Cc2nc(-c3ccc(C)c(NC(=O)c4cnc5ccccn45)c3)no2)CC1` [F214]: the IC50 turned out to be 142 nM.
With `Cc1ccc(-c2noc(C3CCCNC3)n2)cc1NC(=O)c1cnc2ccccn12` (centres unmarked) [F274], the IC50 was 1200 nM.
For `Cc1ccn2c(C(=O)Nc3cc(-c4noc(N5CCN6C(=O)OC[C@@H]6C5)n4)ccc3C)cnc2c1` [F255], the IC50 is 129 nM.
Regarding `Cc1ccc(-c2noc(C3CC[C@H](O)CO3)n2)cc1NC(=O)c1cnc2ccccn12` (some centres unmarked) [F114], the IC50 was 183 nM.
Consider `COC(=O)N1CCC(c2nc(-c3ccc(C)c(NC(=O)c4cnc5ccccn45)c3)no2)C1` (centres unmarked) [F169], for which the IC50 came to 132 nM.
Still for that read-out and setting: the same measure for `COC1CN(c2nc(-c3ccc(C)c(NC(=O)c4cnc5cc(C)ccn45)c3)no2)C1` [F254]: 111 nM.
On to `Cc1ccc(-c2noc(C3(N)COC3)n2)cc1NC(=O)c1cnc2ccccn12` [F286], for which the IC50 is 1680 nM.
Regarding `COC(=O)N1CCOC[C@H]1c1nc(-c2ccc(C)c(NC(=O)c3cnc4ccccn34)c2)no1` [F164], the IC50 was found to be 269 nM.
The same measure, in the same setting: as for `Cc1ccc(-c2noc(C3CN(C(=O)OC(C)C)C3)n2)cc1NC(=O)c1cnc2ccccn12` [F234], the figure is 245 nM; as for `COC(=O)N1CC(c2nc(-c3ccc(C)c(NC(=O)c4cnc5ccc(CCCc6nn[nH]n6)cn45)c3)no2)C1` [F310], above 10000 nM; as for `Cc1ccc(-c2noc([C@@H]3CCN3C(=O)OC3(C)CC3)n2)cc1NC(=O)c1cnc2ccccn12` [F202], 208 nM.
For `CC(=O)N1CC(F)(F)C[C@H]1c1nc(-c2ccc(C)c(NC(=O)c3cnc4ccccn34)c2)no1` [F173], the IC50 worked out at 212 nM.
For `Cc1ccc(-c2noc(C3CN(S(=O)(=O)c4cnn(C)c4)C3)n2)cc1NC(=O)c1cnc2ccccn12` [F217], the IC50 came out at 173 nM.

The same assay, now with this note: Table 2; values marked *: 20% FBS instead of 1% FBS; read-out: c-kit (Mo7e).
Consider `Cc1ccc(-c2noc([C@H]3CCCO3)n2)cc1NC(=O)c1cnc2ccccn12` [F103], for which the IC50 is 229 nM.
For the compound `Cc1ccc(-c2noc(C3CCCCN3S(C)(=O)=O)n2)cc1NC(=O)c1cnc2ccccn12` (centres unmarked) [F110], the IC50 was 227 nM.
On to `Cc1ccc(-c2noc(C3CCCCN3C(=O)OC(C)(C)C)n2)cc1NC(=O)c1cnc2ccccn12` (centres unmarked) [F288], for which the IC50 worked out at 1780 nM.

These data come from patent US8754071B2 (priority 2011, dated 2014).
